Reference: paper PMC12612596, “Real‐time FRET assay for monitoring detyrosination by TMCP1 and VASH2” (Protein Science : A Publication of the Protein Society, 2025)
Like-named read-outs stand apart in the source and are kept apart here. One block for each molecule: values may come before it. Where a SMILES comes first, the peptide text is derived from it.

Legend:
TMCP1 [1] = target: T1, TMCP1 (Homo sapiens, UniProt Q68EN5); test: TMCP1 FRET enzyme activity assay under altered conditions (inhibitors, salts, metal ions, buffers, competition; substrate FS2); type: biochemical; details: for Effect of divalent metal ion on TMCP1 activity (in words): TMCP1 pre-treated with 50 μM EDTA 10 min at room temperature, metal ion >50 μM, 30 min at 37 °C, then FS2
T1 construct: TMCP1 open Reading Frame (ORF) was cloned into pET28A+; 6His (N); made in house; host or cells: Escherichia coli BL21 Star (DE3)
T1 sequence (Q68EN5 1-471): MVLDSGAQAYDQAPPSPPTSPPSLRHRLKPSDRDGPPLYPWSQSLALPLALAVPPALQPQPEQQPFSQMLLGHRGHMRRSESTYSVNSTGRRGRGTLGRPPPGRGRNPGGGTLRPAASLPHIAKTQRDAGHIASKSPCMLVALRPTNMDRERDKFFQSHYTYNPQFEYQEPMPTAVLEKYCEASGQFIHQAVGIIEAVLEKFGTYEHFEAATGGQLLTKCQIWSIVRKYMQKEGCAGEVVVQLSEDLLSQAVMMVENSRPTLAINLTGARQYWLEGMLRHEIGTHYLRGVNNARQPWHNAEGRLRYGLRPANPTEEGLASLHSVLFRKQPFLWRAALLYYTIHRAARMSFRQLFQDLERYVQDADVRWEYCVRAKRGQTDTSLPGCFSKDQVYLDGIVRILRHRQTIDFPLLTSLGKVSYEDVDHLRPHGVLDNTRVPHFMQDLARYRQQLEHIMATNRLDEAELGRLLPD
Protocol: Protein production and purification steps were previously described (Nicot et al., [2023]). Briefly, TMCP1 open Reading Frame (ORF) was cloned into pET28A+ to produce 6His N‐terminally tagged TMCP1. Transformed Escherichia coli strain BL21 Star (DE3) was grown at 37°C until the optical density (OD600) reached 0.6; then the culture was induced with 0.5 mM isopropyl‐β‐d‐thiogalactoside (IPTG) overnight at 18°C. Cells were pelleted for 15 min at 5000 g and resuspended in a 50 mM Tris–HCl buffer (pH 7.4), 500 mM NaCl, 2 mM TCEP, 0.1% Tween. Cell lysis was performed by sonication followed by centrifugation at 20,000×g for 30 min at 4°C. The supernatant was incubated with pre‐washed Ni‐NTA agarose beads (Qiagen) at 4°C for 2 h. Beads were washed extensively in lysis buffer supplemented with 20 mM imidazole and 0.1% Triton. Elutions were performed in a 50 mM Tris–HCl buffer (pH 7.5), 500 mM NaCl, 250 mM imidazole and 1 mM TCEP. The eluted fractions containing proteins were dialyzed overnight at 4°C against 50 mM Tris–HCl buffer (pH 7.5), 300 mM NaCl, 1 mM TCEP using 10 kDa dialysis cassettes. The dialyzed samples were then concentrated and buffer‐exchanged in a 50 mM Tris–HCl buffer (pH 7.5), 200 mM NaCl, 1 mM TCEP using 10 kDa Amicon centrifugal filter units (Amicon Ultra‐4 Merck Millipore). TMCP1 was then snap frozen and stored at −80°C in aliquots.
For each experiment, a fresh stock solution of the fluorescent peptide substrates (5 mM in DMSO), was prepared and protected from light. […] VASH2/SVPB was used at a final concentration of 235 nM, obtained by diluting a 94 μM stock solution (stored at −80°C) at a 1:400 ratio. Enzymatic kinetics experiments were performed in triplicate by measuring the fluorescence of the FRET peptide substrates cleaved by the two enzymes. The cleavage releases a nitro‐tyrosine residue, which acts as a quencher. Its removal leads to an increase of fluorescence, which was quantified fluorometrically (Ex/Em = 320/420 nm) using a SpectraMax i3x (Molecular Devices) microplate reader.
Data were analyzed using GraphPad Prism, with a dedicated curve fitting applied. A Gaussian bell‐shaped curve was used for the optimal pH study, and dose–response inhibition curves were generated by plotting the concentration of NaCl, EDTA, NS3, etc., against the normalized initial velocity (Vi) corresponding to enzyme activity. Data were normalized so that the curve ranged from 100 to 0% activity.
Optimal pH was established using a 50 mM Tris–HCl buffer, with the pH adjusted to the desired value (ranging 4–11) using 0.1 M NaOH or HCl solutions. For the ionic strength experiments, a 500 mM NaCl stock solution in a 50 mM Tris–HCl buffer was used as a starting point for serial dilution (500–0 mM). For EDTA analysis, a 10 mM stock solution was prepared and fully solubilized by vigorous stirring at 80°C. EDTA (0.004 to 400 μM) was then incubated with TMCP1, for 30 min at 37°C before adding the fluorescent substrate and starting the fluorescence measurement. Subsequently, an identical experiment was conducted using 2‐fold serial dilutions to refine the curve around the previously determined IC50.
For metal ion dependency assays, the enzyme was first incubated with 50 μM of EDTA for 10 min at room temperature. Then, serial dilutions were performed from 100 mM stock solutions of each metal ion (ZnCl₂, CoCl₂, and MnCl₂.).
Finally, the competition assay was performed similarly, except that the 96‐well plate was kept on ice during the serial dilution of the NS3 substrate and its addition into the wells.

TMCP1 [2] = target: T1, TMCP1; details: tubulin as substrate; ref Nicot et al., 2023; cited from earlier work
Protocol: In addition, considering that TMCP1 is a metallocarboxypeptidase, its metal ion dependency was also assessed (Figure 4e). First, the metal ions present in the active site of TMCP1 were chelated with 50 μM EDTA. Subsequently, ZnCl₂, MnCl₂, or CoCl₂ were added at varying concentrations (>50 μM) to determine their impact on the restoration of enzymatic activity.

VASH2/SVBP = target: T2, VASH2/SVBP (Homo sapiens, UniProt Q86V25+Q8N300); test: VASH2 FRET inhibition assay (substrate FS2); type: biochemical
T2 construct: His (N); T7 (N); made in house; host or cells: Escherichia coli BL21 Star (DE3)
Protocol: Serial dilutions were prepared prior to enzyme addition (235 nM final concentration) to minimize time‐dependent inhibition effects and to avoid premature covalent modification of the enzyme during the dilution steps. […]

VASH1 = test system: VASH1; design: method as in Feral et al., 2025; details: ref Feral et al., 2025; cited from earlier work
VASH1/SVBP = test: LC-MS analysis of NS3 cleavage by VASH1/SVBP; type: biochemical
[3] = target: Tubulin MetalloCarboxyPeptidase 1 (TMCP1) (UniProt Q68EN5)

T2 sequence (Q86V25 whole entry, species assumed): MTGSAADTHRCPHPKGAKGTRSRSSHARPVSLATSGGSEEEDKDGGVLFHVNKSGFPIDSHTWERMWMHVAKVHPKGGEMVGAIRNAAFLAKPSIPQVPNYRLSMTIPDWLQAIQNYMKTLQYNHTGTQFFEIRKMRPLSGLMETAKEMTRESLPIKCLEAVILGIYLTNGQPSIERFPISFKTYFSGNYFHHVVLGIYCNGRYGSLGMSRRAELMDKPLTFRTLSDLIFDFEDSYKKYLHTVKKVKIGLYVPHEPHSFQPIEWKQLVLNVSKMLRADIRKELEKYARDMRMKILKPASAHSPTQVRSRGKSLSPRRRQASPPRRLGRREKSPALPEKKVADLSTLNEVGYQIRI
T2 sequence (Q8N300 whole entry partner, species assumed): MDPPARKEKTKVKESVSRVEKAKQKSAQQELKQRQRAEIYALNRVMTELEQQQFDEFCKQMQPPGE

Molecule: [Cl-].[Cl-].[Co+2] [CoCl₂]
Effect of divalent metal ion on TMCP1 activity (in words) (TMCP1 [1]; n = 3): highly effective not only at restoring but even increasing TMCP1 activity, although its effectiveness was reduced at higher concentrations
Effect of divalent metal ion on TMCP1 activity (in words) (TMCP1 [1]; n = 3, listed as Co^2+): enhance its activity in a concentration‐dependent manner
Effect of metal ion on TMCP1 (immunoblot, in words) (TMCP1 [2]): strongly activated

Molecule: O=C(O)CN(CCN(CC(=O)O)CC(=O)O)CC(=O)O [EDTA, reference compound]
IC50 (TMCP1 [1]): 2.15 µM

Molecule: [Cl-].[Cl-].[Mg+2] [MgCl₂]
TMCP1 activity with MgCl₂ (in words) (TMCP1 [1]; 80 mM PIPES with or without 1 mM MgCl₂, compared to 50 mM Tris-HCl): enzyme activity comparable to those obtained in 50 mM Tris–HCl

Molecule: [Cl][Mn][Cl] [MnCl₂]
Effect of divalent metal ion on TMCP1 activity (in words) (TMCP1 [1]; n = 3): also restored the activity but unlike CoCl₂, it did so in a concentration‐dependent manner
Effect of divalent metal ion on TMCP1 activity (in words) (TMCP1 [1]; n = 3, listed as Mn^2+): enhance its activity in a concentration‐dependent manner
Effect of metal ion on TMCP1 (immunoblot, in words) (TMCP1 [2]): strongly activated

Molecule: [Cl-].[Na+] [NaCl]
Reduction in TMCP1 activity by NaCl (TMCP1 [1]; NaCl around 100 mM in 50 mM Tris-HCl, FS2, n = 3): 50%
Inhibition of TMCP1 by NaCl (in words) (TMCP1 [1]; NaCl concentrations above 200 mM, n = 3): almost complete inhibition

Continued, in another order:

TMCP1 activity with EGTA (in words) (TMCP1 [1]; 1 mM EGTA in Tris-HCl buffer): complete loss of enzymatic activity
Molecule: O=C(O)CN(CCOCCOCCN(CC(=O)O)CC(=O)O)CC(=O)O [EGTA, reference compound]

IC50 (VASH2/SVBP): 0.42 µM
Molecule: CCOC(=O)C1OC1C(=O)N[C@@H](Cc1ccc(O)cc1)C(=O)O (some centres unmarked) [EpoY]
VASH1 inhibition (in words) (VASH1): blocking VASH1

Affinity relative to fluorescent peptide (in words) (TMCP1 [1]; NS3 vs FS2 (100 μM) in competition assay): slightly higher affinity
IC50 (TMCP1 [1]; read-out: IC50, TMCP1 competition by NS3): ~62 µM
Cleavage of NS3 by VASH1 by LC-MS (in words) (VASH1/SVBP): no activity was detected
Molecule: CC(=O)N[C@H](C(=O)N[C@@H](CCC(=O)O)C(=O)NCC(=O)N[C@@H](CCC(=O)O)C(=O)NCC(=O)N[C@@H](CCC(=O)O)C(=O)N[C@@H](CCC(=O)O)C(=O)N[C@@H](CCC(=O)O)C(=O)NCC(=O)N[C@@H](CCC(=O)O)C(=O)N[C@@H](CCC(=O)O)C(=O)N[C@@H](Cc1ccc(O)cc1)C(=O)O)C(C)C [NS3] (Ac-VEGEGEEEGEEY-OH)

Effect of divalent metal ion on TMCP1 activity (in words) (TMCP1 [1]; n = 3): did not restore the enzymatic activity
Effect of divalent metal ion on TMCP1 activity (in words) (TMCP1 [1]; n = 3, listed as Zn^2+): inhibits the enzyme
Molecule: [Cl-].[Cl-].[Zn+2] [ZnCl₂]
Effect of metal ion on TMCP1 (immunoblot, in words) (TMCP1 [2]): inhibited

IC50 of the competing non-fluorescent peptide NS3 on cleavage of the fluorogenic substrate FS2 (100 μM) by TMCP1, real-time FRET enzymatic assay [3]: 62 µM
Molecule: NS3 (natural substrate 3, non-fluorescent peptide of the last 12 amino acids of the α-tubulin C-terminal tail)
